From publication PMC6466477 (Journal of Medicinal Chemistry, 2019)

Tests used:
[1] = molecular target: T1, hA3AR (Homo sapiens, UniProt P0DMS8); conditions: 25 °C; ref 7 (Xia et al.); cited from earlier work
T1 sequence (P0DMS8 1-318): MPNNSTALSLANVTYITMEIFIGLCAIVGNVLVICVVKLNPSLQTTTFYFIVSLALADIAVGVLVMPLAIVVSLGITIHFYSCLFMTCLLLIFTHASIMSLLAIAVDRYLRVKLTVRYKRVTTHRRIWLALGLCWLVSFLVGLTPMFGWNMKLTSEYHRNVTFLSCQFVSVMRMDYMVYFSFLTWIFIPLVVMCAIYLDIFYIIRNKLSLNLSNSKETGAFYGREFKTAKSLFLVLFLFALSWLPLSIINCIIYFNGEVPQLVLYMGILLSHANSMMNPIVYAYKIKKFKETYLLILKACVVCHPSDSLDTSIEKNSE

[2] = molecular target: T1, hA3AR; type: biochemical; conditions: for mode of antagonism: [35S]GTPγS binding assays, overall; for Schild slope, co-incubation: antagonist co-incubated with 2-Cl-IB-MECA for 30 min at 25 °C; for type of antagonism in co-incubation experiment: co-incubated with 2-Cl-IB-MECA; for type of antagonism in preincubation experiment: pretreatment with antagonist before 2-Cl-IB-MECA
[3] = molecular target: T1, hA3AR; assay: Time-dependent [3H]PSB-11 displacement with or without 4 h preincubation; type: binding; conditions: no preincubation, 0.5 h co-incubation with [3H]PSB-11, 25 °C
[4] = molecular target: T1, hA3AR; assay: Radioligand competition association assay with [3H]PSB-11; type: binding; conditions: competition association curve, Figure 3

Row | Schild slope, preincubation ([2]; antagonist preincubated 60 min at 25 °C before 2-Cl-IB-MECA for 30 min) | hA3AR pKi (pre-0 h) [3] | time to reach equilibrium [4] [min] | Structure (SMILES) | koff (k2) of radioligand [1] [min^–1] | kon (k1) of radioligand [1] | mode of antagonism [2] | Schild slope, co-incubation [2] | type of antagonism in co-incubation experiment [2] | type of antagonism in preincubation experiment [2]
1 | – | – | – | CC[C@@H]1CN2C(=O)N(C)c3nc(-c4ccccc4)[nH]c3C2=N1 [[^3H]PSB-11, [^3H]8-Ethyl-4-methyl-2-phenyl-(8R)-4,5,7,8-tetrahydro-1H-imidazo[2,1-i]-purin-5-one] | 0.3992 ± 0.02 | 0.281 ± 0.04 × 10^8 M^–1 min^–1 | – | – | – | –
2 | – | – | – | CCCn1c(=O)c2c(nc3cc(OC)ccn32)n(CCCNC(=O)c2ccc(S(=O)(=O)F)cc2)c1=O [compound 17b, 4-((3(8-Methoxy-2,4-dioxo-3-propyl-3,4-dihydropyrido[2,1-f]purin-1(2H)yl)propyl)carbamoyl)benzenesulfonyl Fluoride] | – | – | competitive insurmountable | 1.1 ± 0.1 | surmountable antagonism | insurmountable antagonism
3 | 1.1 ± 0.1 | 6.2 ± 0.03 | ≤ 30 | CCCn1c(=O)c2c(nc3cc(OC)ccn32)n(CCCNC(=O)c2ccc(S(C)(=O)=O)cc2)c1=O [compound 19, N-(3-(8-Methoxy-2,4-dioxo-3-propyl-3,4-dihydropyrido[2,1-f]purin-1(2H)-yl)propyl)-4-(methylsulfonyl)benzamide] | – | – | competitive surmountable | 1.0 ± 0.1 | surmountable antagonism | surmountable antagonism
